Data reported in ChEMBL document CHEMBL5360674, “Discovery of Naphthol Tetramers from Endolichenic Fungus Daldinia childiae 047219 Based on MS/MS Molecular Networking” (2023).

Key:
RAW264.7 [1] = assay: Antiinflammatory activity in mouse RAW264.7 cells assessed as reduction in LPS-induced NO production preincubated for 2 hrs followed by LPS stimulation and measured after 24 hrs by Griess reagent-based assay; assay type: functional, cell-based; conditions: dose 5-50 µM, time 26.0 hrs
RAW264.7 [2] = assay: Antiinflammatory activity in mouse RAW264.7 cells assessed as reduction in LPS-induced NO production at 25 to 50 uM preincubated for 2 hrs followed by LPS stimulation and measured after 24 hrs by Griess reagent-based assay relative to control; assay type: functional; set-up: scale not given: the % may be the effect or the level left; conditions: dose 25-50 µM, time 26 hrs
RAW264.7 [3] = assay: Antiinflammatory activity in mouse RAW264.7 cells assessed as reduction in LPS-induced NO production at 10 uM preincubated for 2 hrs followed by LPS stimulation and measured after 24 hrs by Griess reagent-based assay relative to control; assay type: functional; set-up: scale not given: the % may be the effect or the level left; conditions: time 26 hrs

Row | SMILES | Activity (RAW264.7 [1]) | Activity (RAW264.7 [2]) [%] | Activity (RAW264.7 [3]) [%]
1 | COc1cccc2ccc(-c3cc(-c4ccc(O)c5c(OC)cccc45)c4cccc(OC)c4c3O)c(O)c12 | Dose-Dependent Effect | 50 | –
2 | COc1cccc2ccc(-c3ccc(O)c4c(OC)cccc34)c(O)c12 | Dose-Dependent Effect | 50 | –
3 | COc1cccc2ccc(-c3ccc4cccc(OC)c4c3O)c(O)c12 | Dose-Dependent Effect | 50 | –
4 | C[C@@H]1C[C@H]2[C@@H]3CCC4=CC(=O)C=C[C@]4(C)[C@@]3(F)[C@@H](O)C[C@]2(C)[C@@]1(O)C(=O)CO [DEXAMETHASONE] | – | – | 50
